Reference: PubChem BioAssay AID330 (DTP/NCI, 2004)
“And” between values parts separate entries of the source, which are not always exact repeats. Identical values can stand only once. Toxic doses and inconclusive results are not listed.

Tested on: P388 leukemia ip, CD2F1 mice, survival T/C
Test: NCI In Vivo Anticancer Drug Screen. Data for tumor model P388 Leukemia (intraperitoneal) in CD2F1 (CDF1) mice
Details: endpoint: median survival time, higher = longer survival
Procedure, shortened: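 Mice carrying the transplanted tumor received test compound or vehicle. Survival was recorded in each group, and the value is the treated-group measurement divided by that of the vehicle-treated control group.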

[1] = dose: 50.0 mg/kg/injection, schedule: Q01DX005 (ip), vehicle: saline with Tween-80
[2] = dose: 200.0 mg/kg/injection, schedule: Q01DX005 (ip), vehicle: saline with Tween-80
[3] = dose: 60.0 mg/kg/injection, schedule: Q01DX005 (ip), vehicle: saline with Tween-80
[4] = dose: 120.0 mg/kg/injection, schedule: Q01DX005 (ip), vehicle: saline with Tween-80
[5] = dose: 240.0 mg/kg/injection, schedule: Q01DX005 (ip), vehicle: saline with Tween-80
[6] = dose: 50.0 mg/kg/injection, schedule: Q01DX009 (ip), vehicle: saline with Tween-80
[7] = dose: 100.0 mg/kg/injection, schedule: Q01DX009 (ip), vehicle: saline with Tween-80
[8] = dose: 200.0 mg/kg/injection, schedule: Q01DX009 (ip), vehicle: saline with Tween-80
[9] = dose: 100.0 mg/kg/injection, schedule: Q04DX003 (ip), vehicle: saline with Tween-80
[10] = dose: 200.0 mg/kg/injection, schedule: Q04DX003 (ip), vehicle: saline with Tween-80
[11] = dose: 400.0 mg/kg/injection, schedule: Q04DX003 (ip), vehicle: saline with Tween-80
[12] = dose: 50.0 mg/kg/injection, schedule: Q01DX005 (ip), vehicle: Klucel (hydroxypropylcellulose) (HPC)
[13] = dose: 50.0 mg/kg/injection, schedule: Q01DX009 (ip), vehicle: Klucel (hydroxypropylcellulose) (HPC)
[14] = dose: 100.0 mg/kg/injection, schedule: Q01DX009 (ip), vehicle: Klucel (hydroxypropylcellulose) (HPC)
[15] = dose: 100.0 mg/kg/injection, schedule: Q01DX005 (ip), vehicle: saline with Tween-80

In the case of N#CCCCOCCCOCCCOCCCOCCCOCCCC#N, the T/C (dose: 8.75 mg/kg/injection, schedule: Q01DX005 (ip), vehicle: saline with Tween-80) is reported as 102 % of control, the T/C (dose: 17.5 mg/kg/injection, schedule: Q01DX005 (ip), vehicle: saline with Tween-80) is reported as 100 % of control and the T/C (dose: 35.0 mg/kg/injection, schedule: Q01DX005 (ip), vehicle: saline with Tween-80) is reported as 100 % of control. The T/C [1] was 121 % of control, the T/C (dose: 70.0 mg/kg/injection, schedule: Q01DX005 (ip), vehicle: saline with Tween-80) was 108 % of control and the T/C [2] was 110 % of control.
CCC#CC(=O)OCC was tested, and the T/C [3] was 113 % of control, the T/C [4] was 102 % of control and the T/C [5] was 121 % of control.
In the case of COc1cc2c(cc1OC)-c1nc(Nc3ccccc3)sc1CC2, the T/C [6] is reported as 106 % of control, the T/C [7] is reported as 106 % of control and the T/C [8] is reported as 89 % of control.
CN/N=C/c1ccc(O)c(OC)c1 was tested, and the T/C [9] was 100 % of control, the T/C [10] was 100 % of control and the T/C [11] was 100 % of control.
For N#C/C(N)=C(/N)C#N, the T/C (dose: 12.5 mg/kg/injection, schedule: Q01DX009 (ip), vehicle: saline with Tween-80) was 100 % of control and 107 % of control, the T/C (dose: 25.0 mg/kg/injection, schedule: Q01DX009 (ip), vehicle: saline with Tween-80) was 102 % of control and 111 % of control and the T/C [6] was 104 % of control and 117 % of control and 124 % of control.
For C[CH2][Sn]([CH2]C)([O]C(=O)c1ccc2c(c1)OC(C)(C)O2)[O]C(=O)c1ccc2c(c1)OC(C)(C)O2, the T/C (dose: 6.25 mg/kg/injection, schedule: Q01DX005 (ip), vehicle: Klucel (hydroxypropylcellulose) (HPC)) was 117 % of control, the T/C (dose: 12.5 mg/kg/injection, schedule: Q01DX005 (ip), vehicle: Klucel (hydroxypropylcellulose) (HPC)) was 116 % of control and the T/C (dose: 25.0 mg/kg/injection, schedule: Q01DX005 (ip), vehicle: Klucel (hydroxypropylcellulose) (HPC)) was 120 % of control. The T/C [12] was 124 % of control.
In the case of CCC1C(C#N)C(=O)NC(=O)C1C#N (stereo not drawn), the T/C [13] is reported as 100 % of control, the T/C [14] is reported as 95 % of control and the T/C (dose: 200.0 mg/kg/injection, schedule: Q01DX009 (ip), vehicle: Klucel (hydroxypropylcellulose) (HPC)) is reported as 95 % of control.
COc1c2occc2c(NC(=O)CI)c2ccc(=O)oc12 was tested, and the T/C (dose: 25.0 mg/kg/injection, schedule: Q04DX002 (ip), vehicle: saline with Tween-80) was 102 % of control, the T/C (dose: 50.0 mg/kg/injection, schedule: Q04DX002 (ip), vehicle: saline with Tween-80) was 101 % of control and the T/C (dose: 100.0 mg/kg/injection, schedule: Q04DX002 (ip), vehicle: saline with Tween-80) was 101 % of control.
For COc1cc(NCCCCCNC(C)C(C)C)c2ncccc2c1 (stereo not drawn), the T/C (dose: 12.5 mg/kg/injection, schedule: Q01DX005 (ip), vehicle: saline with Tween-80) was 93 % of control, the T/C (dose: 25.0 mg/kg/injection, schedule: Q01DX005 (ip), vehicle: saline with Tween-80) was 95 % of control and the T/C [1] was 100 % of control and 96 % of control.
With COC(=O)C(=O)c1c(-c2ccc(O)c(OC)c2)[nH]c2[nH]n(-c3ccccc3)c(=O)c2c1=O the T/C [3] was 100 % of control, the T/C [4] was 109 % of control and the T/C [5] was 88 % of control.
CC(=O)Cc1ccc(C)cc1 was tested, and the T/C [9] was 104 % of control, the T/C [10] was 104 % of control and the T/C [11] was 104 % of control.
In the case of CC(=O)NC1CCC(C2CCCCC2)CC1C1CCCCC1 (stereo not drawn), the T/C [1] is reported as 107 % of control, the T/C [15] is reported as 98 % of control and the T/C [2] is reported as 102 % of control.
With COc1ccc2c(c1OC(C)=O)C1=CC(OC(C)=O)=CCC13CCN(C)C3C2 (stereo not drawn) the T/C (dose: 50.0 mg/kg/injection, schedule: Q01DX005 (ip), vehicle: saline) was 102 % of control, the T/C (dose: 100.0 mg/kg/injection, schedule: Q01DX005 (ip), vehicle: saline) was 111 % of control and the T/C (dose: 200.0 mg/kg/injection, schedule: Q01DX005 (ip), vehicle: saline) was 99 % of control.
With N/C(CCSc1ccccc1N=Cc1ccccc1O)=N/O the T/C (dose: 12.5 mg/kg/injection, schedule: Q01DX009 (ip), vehicle: olive oil, sesame oil, peanut oil) was 102 % of control, the T/C (dose: 25.0 mg/kg/injection, schedule: Q01DX009 (ip), vehicle: olive oil, sesame oil, peanut oil) was 104 % of control and the T/C (dose: 50.0 mg/kg/injection, schedule: Q01DX009 (ip), vehicle: olive oil, sesame oil, peanut oil) was 104 % of control.
With CCCCCCSc1nn(CCC#N)c(=O)[nH]c1=O the T/C (dose: 25.0 mg/kg/injection, schedule: Q01DX005 (ip), vehicle: distilled water + alcohol) was 103 % of control, the T/C (dose: 50.0 mg/kg/injection, schedule: Q01DX005 (ip), vehicle: distilled water + alcohol) was 108 % of control and the T/C (dose: 100.0 mg/kg/injection, schedule: Q01DX005 (ip), vehicle: distilled water + alcohol) was 103 % of control. The T/C (dose: 200.0 mg/kg/injection, schedule: Q01DX005 (ip), vehicle: distilled water + alcohol) was 92 % of control.
For COC(=O)C1CC(C)C1(OC)OC (stereo not drawn), the T/C (dose: 60.0 mg/kg/injection, schedule: Q01DX005 (ip), vehicle: saline) was 106 % of control, the T/C (dose: 120.0 mg/kg/injection, schedule: Q01DX005 (ip), vehicle: saline) was 107 % of control and the T/C (dose: 240.0 mg/kg/injection, schedule: Q01DX005 (ip), vehicle: saline) was 101 % of control.
For COC1/C=C/OC2(C)Oc3c(C)c(O)c4c(O)c(c(/C=N/n5cnc6c(ncn6C6OC(CO)C(O)C6O)c5=O)c(O)c4c3C2=O)NC(=O)/C(C)=C\C=C\C(C)C(O)C(C)C(O)C(C)C(OC(C)=O)C1C (stereo not drawn), the T/C [6] was 106 % of control, the T/C [7] was 97 % of control and the T/C [8] was 102 % of control.
For CC(C)C(O)(C(=O)OCC1=CC[N+]2(C)CCC(O)C12)C(C)O (stereo not drawn), the T/C (dose: 25.0 mg/kg/injection, schedule: Q01DX005 (ip), vehicle: water) was 103 % of control, the T/C (dose: 50.0 mg/kg/injection, schedule: Q01DX005 (ip), vehicle: water) was 108 % of control and the T/C (dose: 100.0 mg/kg/injection, schedule: Q01DX005 (ip), vehicle: water) was 103 % of control. The T/C (dose: 200.0 mg/kg/injection, schedule: Q01DX005 (ip), vehicle: water) was 100 % of control.
CCCCCCOc1cccc(OCCCC[N+]2(CC)CCCCC2)c1 was tested, and the T/C (dose: 1.56 mg/kg/injection, schedule: Q01DX009 (ip), vehicle: saline) was 96 % of control, the T/C (dose: 3.12 mg/kg/injection, schedule: Q01DX009 (ip), vehicle: saline) was 105 % of control and the T/C (dose: 6.25 mg/kg/injection, schedule: Q01DX009 (ip), vehicle: saline) was 91 % of control.
For CCOC(=O)CNc1sc(=S)[nH]c1C(=O)OCC, the T/C [12] was 100 % of control, the T/C (dose: 100.0 mg/kg/injection, schedule: Q01DX005 (ip), vehicle: Klucel (hydroxypropylcellulose) (HPC)) was 91 % of control and the T/C (dose: 200.0 mg/kg/injection, schedule: Q01DX005 (ip), vehicle: Klucel (hydroxypropylcellulose) (HPC)) was 92 % of control.
With CCCCCCCCCCCCCCCc1cc(O)c(CC=C(C)C)c(=O)o1 (tested in a mixture with another compound) the T/C (dose: 82.5 mg/kg/injection, schedule: Q01DX005 (ip), vehicle: Klucel (hydroxypropylcellulose) (HPC)) was 98 % of control, the T/C (dose: 165.0 mg/kg/injection, schedule: Q01DX005 (ip), vehicle: Klucel (hydroxypropylcellulose) (HPC)) was 97 % of control and the T/C (dose: 330.0 mg/kg/injection, schedule: Q01DX005 (ip), vehicle: Klucel (hydroxypropylcellulose) (HPC)) was 105 % of control.
In the case of CC(=O)[O][Pb]([O]C(C)=O)([c]1ccccc1)[c]1ccccc1, the T/C (dose: 6.25 mg/kg/injection, schedule: Q01DX009 (ip), vehicle: Klucel (hydroxypropylcellulose) (HPC)) is reported as 121 % of control, the T/C (dose: 12.5 mg/kg/injection, schedule: Q01DX009 (ip), vehicle: Klucel (hydroxypropylcellulose) (HPC)) is reported as 124 % of control and the T/C (dose: 17.8 mg/kg/injection, schedule: Q01DX009 (ip), vehicle: saline with Tween-80) is reported as 114 % of control. The T/C (dose: 25.0 mg/kg/injection, schedule: Q01DX009 (ip), vehicle: Klucel (hydroxypropylcellulose) (HPC)) was 119 % of control, the T/C (dose: 30.0 mg/kg/injection, schedule: Q01DX009 (ip), vehicle: Klucel (hydroxypropylcellulose) (HPC)) was 104 % of control and the T/C (dose: 40.0 mg/kg/injection, schedule: Q01DX009 (ip), vehicle: saline with Tween-80) was 123 % of control. For the same molecule, the T/C (dose: 45.0 mg/kg/injection, schedule: Q01DX009 (ip), vehicle: Klucel (hydroxypropylcellulose) (HPC)) was 112 % of control, the T/C [13] was 120 % of control and the T/C (dose: 65.0 mg/kg/injection, schedule: Q01DX009 (ip), vehicle: Klucel (hydroxypropylcellulose) (HPC)) was 107 % of control. For the same molecule, the T/C [14] was 123 % of control and the T/C (dose: 150.0 mg/kg/injection, schedule: Q01DX009 (ip), vehicle: Klucel (hydroxypropylcellulose) (HPC)) was 150 % of control.
For CO/C(C)=C1/C(=O)O/C(=C/Nc2ccccc2)C1=O, the T/C [1] was 107 % of control, the T/C [15] was 107 % of control and the T/C [2] was 96 % of control.
